# Key:
# Cytochrome P450 3A4 [1] = molecular target: T1, Cytochrome P450 3A4 (Homo sapiens, UniProt P08684); assay: Time dependent inhibition of human recombinant CYP3A4 using BFC as substrate incubated for 30 mins prior to substrate addition; format: ADME; details: recombinant enzyme, 0.5 h
# CYP2C19 [2] = molecular target: T2, CYP2C19 (Homo sapiens, UniProt P33261); assay: Inhibition of human recombinant CYP2C19 at 3 uM by fluorimetric assay; format: ADME
# CYP2C9 [3] = molecular target: T3, CYP2C9 (Homo sapiens, UniProt P11712); assay: Inhibition of human recombinant CYP2C9 at 3 uM by fluorimetric assay; format: ADME
# T3 sequence (P11712 whole entry): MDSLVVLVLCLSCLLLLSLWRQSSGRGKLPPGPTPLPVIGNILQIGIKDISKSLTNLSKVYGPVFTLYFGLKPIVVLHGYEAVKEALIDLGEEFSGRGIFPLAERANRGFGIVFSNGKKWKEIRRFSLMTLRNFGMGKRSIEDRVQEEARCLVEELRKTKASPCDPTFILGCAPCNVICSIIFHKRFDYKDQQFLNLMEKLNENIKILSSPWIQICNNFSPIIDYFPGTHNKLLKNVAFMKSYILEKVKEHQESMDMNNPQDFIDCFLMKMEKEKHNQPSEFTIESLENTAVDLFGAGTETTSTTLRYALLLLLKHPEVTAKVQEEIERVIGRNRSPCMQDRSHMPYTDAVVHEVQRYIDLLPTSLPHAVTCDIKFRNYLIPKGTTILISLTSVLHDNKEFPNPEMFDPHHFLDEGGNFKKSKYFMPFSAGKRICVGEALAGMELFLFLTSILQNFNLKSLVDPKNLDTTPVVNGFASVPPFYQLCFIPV
# CYP1A2 [4] = molecular target: T4, CYP1A2 (Homo sapiens, UniProt P05177); assay: Inhibition of human recombinant CYP1A2 at 3 uM by fluorimetric assay; format: ADME
# T4 sequence (P05177 whole entry): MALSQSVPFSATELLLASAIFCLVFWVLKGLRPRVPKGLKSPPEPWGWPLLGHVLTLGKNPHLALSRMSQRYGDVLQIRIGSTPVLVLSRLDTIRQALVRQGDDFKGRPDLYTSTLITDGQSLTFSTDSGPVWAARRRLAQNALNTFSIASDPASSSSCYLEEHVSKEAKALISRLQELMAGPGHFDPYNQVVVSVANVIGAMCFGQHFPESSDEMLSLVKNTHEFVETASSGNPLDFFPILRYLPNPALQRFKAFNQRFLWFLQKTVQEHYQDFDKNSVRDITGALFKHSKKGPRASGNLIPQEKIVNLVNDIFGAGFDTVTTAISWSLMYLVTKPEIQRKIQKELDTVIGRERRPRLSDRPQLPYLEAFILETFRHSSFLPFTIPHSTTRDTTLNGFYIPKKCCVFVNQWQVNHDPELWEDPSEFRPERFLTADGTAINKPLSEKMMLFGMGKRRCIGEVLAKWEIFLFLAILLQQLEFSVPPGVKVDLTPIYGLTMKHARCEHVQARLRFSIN
# CYP3A4 [5] = molecular target: T5, CYP3A4 (Homo sapiens, UniProt P08684); assay: Inhibition of human recombinant CYP3A4 using BFC as substrate at 3 uM by fluorimetric assay; format: ADME; details: recombinant CYP3A4, probe BFC
# T5 sequence (P08684 whole entry): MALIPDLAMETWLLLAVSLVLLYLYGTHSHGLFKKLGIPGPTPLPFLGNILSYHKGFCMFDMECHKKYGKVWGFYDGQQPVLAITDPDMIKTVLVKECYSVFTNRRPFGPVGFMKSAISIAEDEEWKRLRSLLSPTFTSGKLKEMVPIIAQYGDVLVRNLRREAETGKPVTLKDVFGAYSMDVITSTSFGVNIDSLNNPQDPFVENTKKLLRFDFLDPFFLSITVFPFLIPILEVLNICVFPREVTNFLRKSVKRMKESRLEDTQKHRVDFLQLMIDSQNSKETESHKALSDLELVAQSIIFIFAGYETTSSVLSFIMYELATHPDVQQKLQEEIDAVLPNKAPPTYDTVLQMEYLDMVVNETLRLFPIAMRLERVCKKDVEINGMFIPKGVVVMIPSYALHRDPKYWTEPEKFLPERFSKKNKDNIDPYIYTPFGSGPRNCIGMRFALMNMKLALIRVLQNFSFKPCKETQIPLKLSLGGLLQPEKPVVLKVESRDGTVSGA
# CYP2D6 [6] = molecular target: T6, CYP2D6 (Homo sapiens, UniProt P10635); assay: Inhibition of human recombinant CYP2D6 at 3 uM by fluorimetric assay; format: ADME
# T6 sequence (P10635 whole entry): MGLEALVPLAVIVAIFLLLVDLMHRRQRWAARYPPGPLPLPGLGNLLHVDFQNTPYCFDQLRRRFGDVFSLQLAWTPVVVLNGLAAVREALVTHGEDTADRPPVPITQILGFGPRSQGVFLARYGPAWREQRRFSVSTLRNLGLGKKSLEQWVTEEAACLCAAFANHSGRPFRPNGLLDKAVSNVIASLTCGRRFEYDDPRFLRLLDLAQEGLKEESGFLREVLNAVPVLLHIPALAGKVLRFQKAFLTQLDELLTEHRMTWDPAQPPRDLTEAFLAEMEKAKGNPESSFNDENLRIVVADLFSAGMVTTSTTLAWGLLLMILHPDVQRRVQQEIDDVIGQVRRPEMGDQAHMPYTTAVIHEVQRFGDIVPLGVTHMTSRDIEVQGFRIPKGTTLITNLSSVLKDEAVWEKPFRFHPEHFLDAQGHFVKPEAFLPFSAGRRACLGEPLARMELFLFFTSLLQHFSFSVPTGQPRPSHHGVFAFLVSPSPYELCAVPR
# CYP3A4 [7] = molecular target: T5, CYP3A4; assay: Inhibition of human recombinant CYP3A4 using DBF as substrate at 3 uM by fluorimetric assay; format: ADME; details: recombinant CYP3A4, probe DBF
# Cytochrome P450 3A4 [8] = molecular target: T1, Cytochrome P450 3A4; assay: Inhibition of human recombinant CYP3A4 using BFC as substrate by fluorimetric assay; format: ADME
# CYP2C9 [9] = molecular target: T3, CYP2C9; assay: Inhibition of human recombinant CYP2C9 at 1 uM by fluorimetric assay; format: ADME
# CYP2C19 [10] = molecular target: T2, CYP2C19; assay: Inhibition of human recombinant CYP2C19 at 1 uM by fluorimetric assay; format: ADME
# CYP1A2 [11] = molecular target: T4, CYP1A2; assay: Inhibition of human recombinant CYP1A2 at 1 uM by fluorimetric assay; format: ADME
# CYP2D6 [12] = molecular target: T6, CYP2D6; assay: Inhibition of human recombinant CYP2D6 at 1 uM by fluorimetric assay; format: ADME
# CYP3A4 [13] = molecular target: T5, CYP3A4; assay: Inhibition of human recombinant CYP3A4 using BFC as substrate at 1 uM by fluorimetric assay; format: ADME; details: recombinant CYP3A4, probe BFC
# [14] = Ratio of drug uptake from rat brain to plasma at 1 mg/kg, iv after 1 hr; format: ADME, organism-based; parameters: dose 1 mg/kg, route intravenous; details: read-out: BPR
# CYP3A4 [15] = molecular target: T5, CYP3A4; assay: Inhibition of human recombinant CYP3A4 using DBF as substrate at 1 uM by fluorimetric assay; format: ADME; details: recombinant CYP3A4, probe DBF
# [16] = Volume of distribution at steady state in rat; format: ADME, organism-based; details: in vivo, read-out: Vdss
# [17] = Plasma clearance in rat at 1 mg/kg, iv; format: ADME, organism-based; parameters: dose 1 mg/kg, route intravenous
# [18] = Oral bioavailability in rat at 1 mg/kg; format: ADME, organism-based; details: in vivo
# [19] = molecular target: T7, Orexin/Hypocretin receptor type 1 (Homo sapiens) (UniProt O43613); assay: Antagonist activity at human recombinant OX1 receptor expressed in CHO cells assessed as OXA-stimulated intracellular calcium mobilization by FLIPR assay; format: functional, cell-based
# T7 sequence (whole entry): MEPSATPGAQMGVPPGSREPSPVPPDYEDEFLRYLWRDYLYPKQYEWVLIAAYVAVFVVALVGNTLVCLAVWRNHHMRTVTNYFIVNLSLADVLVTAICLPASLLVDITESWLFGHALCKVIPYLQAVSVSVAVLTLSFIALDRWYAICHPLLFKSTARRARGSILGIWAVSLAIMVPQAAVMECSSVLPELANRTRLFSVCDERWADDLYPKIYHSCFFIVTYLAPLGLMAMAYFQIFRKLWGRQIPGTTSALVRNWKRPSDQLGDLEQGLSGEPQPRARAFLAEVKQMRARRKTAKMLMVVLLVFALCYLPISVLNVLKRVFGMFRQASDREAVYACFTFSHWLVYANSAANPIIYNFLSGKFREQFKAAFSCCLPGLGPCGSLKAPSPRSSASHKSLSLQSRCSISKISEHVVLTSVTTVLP
# [20] = molecular target: T8, Orexin receptor type 2 (Homo sapiens) (UniProt O43614); assay: Antagonist activity at human recombinant OX2 receptor expressed in HEK293 cells assessed as OXB-stimulated intracellular calcium mobilization by FLIPR assay; format: functional, cell-based
# T8 sequence (whole entry): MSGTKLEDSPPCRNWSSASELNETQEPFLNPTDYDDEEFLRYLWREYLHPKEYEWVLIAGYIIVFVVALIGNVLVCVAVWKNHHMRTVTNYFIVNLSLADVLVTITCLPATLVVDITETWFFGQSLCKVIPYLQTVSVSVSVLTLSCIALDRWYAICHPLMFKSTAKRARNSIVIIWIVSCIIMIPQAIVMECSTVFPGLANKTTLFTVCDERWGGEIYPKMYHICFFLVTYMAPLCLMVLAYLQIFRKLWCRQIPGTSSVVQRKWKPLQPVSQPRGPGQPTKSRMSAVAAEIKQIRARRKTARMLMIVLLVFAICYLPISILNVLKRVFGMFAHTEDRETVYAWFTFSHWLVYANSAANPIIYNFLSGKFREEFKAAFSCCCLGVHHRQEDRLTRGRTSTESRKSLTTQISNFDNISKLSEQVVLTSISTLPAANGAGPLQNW
# Homo sapiens = species: Homo sapiens; assay: Selectivity ratio for human recombinant OX1 to human recombinant OX2
# T2 sequence (P33261 whole entry): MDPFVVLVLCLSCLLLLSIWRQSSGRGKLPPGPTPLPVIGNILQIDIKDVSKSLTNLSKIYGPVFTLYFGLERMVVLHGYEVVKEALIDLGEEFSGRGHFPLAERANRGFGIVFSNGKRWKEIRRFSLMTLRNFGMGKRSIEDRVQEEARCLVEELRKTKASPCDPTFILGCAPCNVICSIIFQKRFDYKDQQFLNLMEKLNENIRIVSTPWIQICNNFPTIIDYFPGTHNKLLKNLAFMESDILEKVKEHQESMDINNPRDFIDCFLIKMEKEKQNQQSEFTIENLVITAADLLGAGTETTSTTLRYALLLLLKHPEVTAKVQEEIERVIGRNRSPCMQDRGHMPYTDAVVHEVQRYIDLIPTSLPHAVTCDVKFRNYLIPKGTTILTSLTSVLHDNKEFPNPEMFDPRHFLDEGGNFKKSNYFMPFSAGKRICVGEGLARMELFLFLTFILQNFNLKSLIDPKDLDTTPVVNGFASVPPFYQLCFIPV
# T1 sequence (P08684 whole entry): as the sequence (P08684 whole entry) above
SMILES,inhibition (INH) (Cytochrome P450 3A4 [1]),inhibition at 3 µM (CYP2C19 [2]) [%],inhibition at 3 µM (CYP2C9 [3]) [%],inhibition at 3 µM (CYP1A2 [4]) [%],inhibition at 3 µM (CYP3A4 [5]) [%],inhibition at 3 µM (CYP2D6 [6]) [%],inhibition at 3 µM (CYP3A4 [7]) [%],IC50 (Cytochrome P450 3A4 [8]) [µM],inhibition at 1 µM (CYP2C9 [9]) [%],inhibition at 1 µM (CYP2C19 [10]) [%],inhibition at 1 µM (CYP1A2 [11]) [%],inhibition at 1 µM (CYP2D6 [12]) [%],inhibition at 1 µM (CYP3A4 [13]) [%],Kp at 1 h [14],inhibition at 1 µM (CYP3A4 [15]) [%],Vd [16] [L/kg],clearance [17] [mL/min/kg],bioavailability [18] [%],pKb [19],pKb [20],other results
Cc1nc(C(=O)N2CC3(CC3)C[C@H]2CNc2ccc(C(F)(F)F)cn2)c(-c2ccccc2)s1,Active,< 20,< 20,< 20,< 20,< 20,< 20,> 100,< 20,< 20,< 20,< 20,< 20,0.6,< 20,3,55.2,20,8.4,7.7,
Cc1ccc(-c2ncccn2)c(C(=O)N2CC3(CC3)C[C@H]2CNc2ccc(C(F)(F)F)cn2)n1,Active,< 28,< 28,< 28,< 28,< 28,< 28,> 100,,,,,,0.5,,2,47.5,33,8.4,7.5,
Cc1ccc(-c2ncccn2)c(C(=O)N2CC3(CC3)C[C@H]2CNc2ccc(Cl)cn2)c1,,,,,,,,,< 53,< 53,< 53,< 53,< 53,0.03,< 53,6.21,11,40,8.2,< 5,
Cc1ccc(-c2ncccn2)c(C(=O)N2CC3(CC3)C[C@H]2CNc2cc(C(F)(F)F)ccn2)n1,,,,,,,,,< 39,< 39,< 39,< 39,< 39,,< 39,,,,6,8.1,Selectivity ratio (Homo sapiens): > 100
Cc1ccc(-c2ccccc2)c(C(=O)N2CC3(CC3)C[C@H]2CNc2ccc(C(F)(F)F)cn2)n1,Not Active,< 20,< 20,< 20,< 20,< 20,< 20,64,,,,,,0.4,,4.4,61.3,11,8.6,8,
Cc1cc(C)nc(NC[C@@H]2CC3(CC3)CN2C(=O)c2nc(C)sc2-c2ccccc2)n1,Active,,,,,,,7.9,< 16,< 16,< 16,< 16,< 16,0.1,< 16,0.7,41.4,,7.5,8.6,
